Laboratory results published in US9862711B2, “Pyrazine derivatives as phosphatidylinositol 3-kinase inhibitors” (NOVARTIS AG, priority 2014, dated 2018).

Tests used:
Format in all cases: cell-based
[1] = molecular target: PI 3-kinase beta (Homo sapiens (Human), UniProt P42338); assay: Cellular p-Akt (S473) SureFire assay, Rat-1_PI3Kbeta cells (Assay I); conditions: p-AKT (Ser473) in Rat-1 cells expressing myr-HA-hp110 beta, 1 h compound; read-out: Assay I PI3Kβ IC50
From the text: (§1) Cellular Assays for PI 3-Kinase Alpha (H), Beta (I) and Delta (J)
(§2) AlphaScreen (Amplified Luminescent Proximity Homogeneous Assay, ALPHA, Perkin Elmer) is a non-radioactive bead-based proximity assay technology to study biomolecular interactions in a homogenous microtiter plate format. The brand name SureFire denotes AlphaScreen assays that are adapted to quantify the phosphorylation of endogenous cellular proteins in cell lysates, by using matched antibody pairs, which consist of an anti-phospho-kinase and an anti-kinase antibody. The assay allows characterization of kinase signaling in cells as well as measurement of kinase inhibitor effects.
(§3) Rat-1 cell lines stably overexpressing activated PI 3-kinase class I isoforms Rat-1 pBABEpuro Myr-HA-hp110 delta clone 5 (Rat-1_PI3Kdelta) and Rat-1 pBABEpuro Myr-HA-hp110 alpha clone 6 (Rat-1_PI3Kalpha) and Rat-1 pBABEpuro Myr-HA-hp110 beta (Rat-1_PI3beta) were cultivated in complete growth medium (DMEM high glucose, 10% (v/v) fetal bovine serum, 1% (v/v) MEM NEAA, 10 mM HEPES, 2 mM L-glutamine, puromycin (10 μg/mL for Rat-1_PI3Kdelta and Rat-1_PI3Kalpha, 4 ug/mL for Rat-1_PI3beta), 1% (v/v) Pen/Strep) to 90% confluency at 37° C./5% CO2/90% humidity in a humidified CO2 incubator and were split twice a week. The following materials were used for p-AKT(5473) detection in Rat-1 cell lysates: Dulbecco's modified Eagle's medium (DMEM) high glucose (Gibco Invitrogen, Basel, Switzerland, Cat. No. 41965), heat inactivated fetal bovine serum, qualified (HI FBS; Gibco Invitrogen, Basel, Switzerland, Lot. No. 16140), MEM non essential amino acids (NEAA; Gibco Invitrogen, Basel, Switzerland, Cat. No. 11140), HEPES (Gibco Invitrogen, Basel, Switzerland, Cat. No. 15630), penicillin/streptomycin (Pen/Strep, 100×; Gibco Invitrogen, Basel, Switzerland, Cat. No. 15140-122), L-glutamine (Gibco Invitrogen, Basel, Switzerland, Cat. No. 25030), puromycin (Sigma Aldrich, Buchs, Switzerland, Cat. No. P9620), DMSO (MERCK, Dietikon, Switzerland, Cat. No. 8.02912.2500), H2O, MilliQ-H2O unless otherwise stated (MILLIPORE QGARDOOR1, Millipore, Zug, Switzerland), bovine serum albumine (BSA; Sigma Aldrich, Buchs, Switzerland Cat. No. A8412), SureFire p-Akt 1/2 (Ser473) Assay Kit (Perkin Elmer, Schwerzenbach, Switzerland, Cat. No. TGRAS50K).
(§4) The p-Akt (S473) SureFire assay measures the phosphorylation of endogenous cellular Akt 1/2 at Ser473 in cell lysates. Using Rat-1 cells stably expressing myr-HA-tagged versions of the human PI3Kdelta, PI3Kalpha, or PI3Kbeta p110 catalytic subunit isoforms, the assay was developed as a two-plate protocol in a 384-well format.
(§5) For compound testing, the cells were seeded at a density of 4000 (Rat-1_PI3Kdelta), 7500 (Rat-1_PI3Kalpha), or 6200 (Rat-1_PI3Kbeta) cells in 20 μl complete growth medium into cell culture treated 384-well plates and were grown at 37° C./5% CO2/90% humidity for 24 h. Shortly before compound transfer, the complete medium was removed, 30 μl assay buffer (DMEM high glucose, 1×MEM NEAA, 10 mM HEPES, 2 mM L-glutamine, 0.1% (w/v) BSA) was added and 10 μl of the compound predilutions were transferred to the cells. After treatment with compound for 1 h, the cells were lysed by the addition of 20 μl lysis buffer supplemented with 0.24% (w/v) BSA. Detection of p-AKT (Ser473) was performed with the SureFire p-Akt 1/2 (Ser473) Assay Kit according to the manufacturer's instructions using 5 ul of cell lysate in a total detection volume of 12 μl.
(§6) IC50 values of the percentage inhibition of each compound at 8 concentrations (usually 10, 3.0, 1.0, 0.3, 0.1, 0.030, 0.010 and 0.003 μM) n=2 were derived by fitting a sigmoidal dose-response curve to a plot of assay readout over inhibitor concentration as described. All fits were performed with the program XLfit4 (ID Business Solutions, Guildford, UK).

[2] = system: IL-8-induced neutrophil shape change in human whole blood; assay: Whole blood neutrophil shape change assay (Assay L); conditions: 2 nM IL-8, neutrophil shape change by flow cytometry, read-out: Assay L WBSC IC50
Procedure: Whole Blood Neutrophil Shape Change Assay (L)
A flow cytometry based method used to measure the inhibition of IL-8 (interleukin-8)-induced neutrophil shape change in human whole blood.
IL-8 was made up to 2 μM stocks in 0.1% bovine serum albumin/PBS and stored at −80° C. On the day IL-8 was diluted in PBS (phosphate buffered saline) 10 minutes before use. IL-8 was used at final concentration of 2 nM and a concentration range from […] to 200 nM for the donor dose response curve.
Assay fixative solution was prepared fresh each day from 10× concentrated CellFIX™ solution diluted 1:10 in sterile distilled water and then 1:4 with PBS. Assay fixative solution was kept on ice prior to use.
A 10× lysis buffer was prepared in advance by dissolving 20.75 g […] and 2.5 g KHCO3 in 250 ml sterile H2O. This 10× lysis buffer was filtered under sterile conditions and stored for up to two weeks at 4° C. On the day a 1× lysis solution was prepared with sterile distilled H2O and kept on ice prior to use.
The test compounds were prepared as 10 mM stock solutions in 100% DMSO and were stored at 4° C. Once in use for an assay 10 mM stock compounds were thawed and stored at RT protected from light. Compound dilutions were prepared fresh on the day. The first series of dilutions in 100% DMSO were done first thing in the morning. Only once blood had been collected and arrived in laboratory was the next set of dilutions into PBS carried out (1:10 PBS, 10% DMSO). This limited the exposure of diluted compound to plastic and made sure the exposure timing was consistent between assays. Compounds were added to the deep 96 well plates at 10× the final desired concentration (with addition of blood final [DMSO]=1%).
Table 3 illustrates the compound dilution series used in human whole blood neutrophil shape change assay.
On the day of running the assay, assay fixative buffer and 1× lysis solutions were prepared and stored on ice. Compound dilutions in 100% DMSO were prepared as described previously. Human whole blood was collected in K2 EDTA Vacutainers. Once blood was in the laboratory, compound dilutions into PBS were carried out as described previously and depicted in Table 1. 10 μl of 10× final compound concentration was added to appropriate wells of a deep 96-well plate except controls where 10 μl of 10% DMSO was added in place of compound, as outlined in the dilution series in Table 1. The outer wells of the deep well assay plate were filled with 1200 μl of sterile distilled H2O in an effort to limit edge effects (rows A1-H1, A1-A12, A12-H12). An IL-8 dose response was determined for each blood donor examined, to monitor the donor response to IL-8. At this step in assay preparation for the IL-8 dose response samples 10 μl of PBS was added to designated wells. In addition the assay window without DMSO was also assessed each day. For such samples at this step in assay preparation 10 μl of PBS was added in the place of 10% DMSO.
80 μl of whole blood was added to compound/10% DMSO/PBS and mixed once gently upon addition. Lids were placed on the 96 well plates and samples were incubated for 15 minutes at 37° C. in a water-bath.
Following the compound pre-incubation 10× final IL-8 was added to appropriate wells (10 μl of 20 nM working stock IL-8, final IL-8 concentration in blood=2 nM) and 10 μl of PBS was added to the un-stimulated controls. 10× final dose response range IL-8 was also added to designated wells (final concentration range on assay plate was 200 nM to 0.0005 nM, 1:5 serial dilution in PBS). The IL-8 and PBS were added to appropriate wells across all assay plates in the same sequence as the blood to compound addition. Once added to all assay plates, samples were mixed quickly once to ensure even distribution of IL-8. Samples were incubated for 5 minutes at 37° C. in a water-bath. Following the incubation sample plates were transferred to ice where 250 μl of chilled Assay Fixative Buffer was added promptly to all wells. […]

[3] = molecular target: PI 3-kinase delta (Homo sapiens (Human), UniProt O00329); assay: Cellular p-Akt (S473) SureFire assay, Rat-1_PI3Kdelta cells (Assay J); conditions: p-AKT (Ser473) in Rat-1 cells expressing myr-HA-hp110 delta, 1 h compound; read-out: Assay J PI3Kδ IC50
From the text: as §1, §2, §3, §4, §5, §6

[4] = molecular target: PI 3-kinase alpha (Homo sapiens (Human), UniProt P42336); assay: Cellular p-Akt (S473) SureFire assay, Rat-1_PI3Kalpha cells (Assay H); conditions: p-AKT (Ser473) in Rat-1 cells expressing myr-HA-hp110 alpha, 1 h compound; read-out: Assay H PI3Kα IC50
From the text: as §1, §2, §3, §4, §5, §6

PI 3-kinase beta, sequence (P42338 whole entry): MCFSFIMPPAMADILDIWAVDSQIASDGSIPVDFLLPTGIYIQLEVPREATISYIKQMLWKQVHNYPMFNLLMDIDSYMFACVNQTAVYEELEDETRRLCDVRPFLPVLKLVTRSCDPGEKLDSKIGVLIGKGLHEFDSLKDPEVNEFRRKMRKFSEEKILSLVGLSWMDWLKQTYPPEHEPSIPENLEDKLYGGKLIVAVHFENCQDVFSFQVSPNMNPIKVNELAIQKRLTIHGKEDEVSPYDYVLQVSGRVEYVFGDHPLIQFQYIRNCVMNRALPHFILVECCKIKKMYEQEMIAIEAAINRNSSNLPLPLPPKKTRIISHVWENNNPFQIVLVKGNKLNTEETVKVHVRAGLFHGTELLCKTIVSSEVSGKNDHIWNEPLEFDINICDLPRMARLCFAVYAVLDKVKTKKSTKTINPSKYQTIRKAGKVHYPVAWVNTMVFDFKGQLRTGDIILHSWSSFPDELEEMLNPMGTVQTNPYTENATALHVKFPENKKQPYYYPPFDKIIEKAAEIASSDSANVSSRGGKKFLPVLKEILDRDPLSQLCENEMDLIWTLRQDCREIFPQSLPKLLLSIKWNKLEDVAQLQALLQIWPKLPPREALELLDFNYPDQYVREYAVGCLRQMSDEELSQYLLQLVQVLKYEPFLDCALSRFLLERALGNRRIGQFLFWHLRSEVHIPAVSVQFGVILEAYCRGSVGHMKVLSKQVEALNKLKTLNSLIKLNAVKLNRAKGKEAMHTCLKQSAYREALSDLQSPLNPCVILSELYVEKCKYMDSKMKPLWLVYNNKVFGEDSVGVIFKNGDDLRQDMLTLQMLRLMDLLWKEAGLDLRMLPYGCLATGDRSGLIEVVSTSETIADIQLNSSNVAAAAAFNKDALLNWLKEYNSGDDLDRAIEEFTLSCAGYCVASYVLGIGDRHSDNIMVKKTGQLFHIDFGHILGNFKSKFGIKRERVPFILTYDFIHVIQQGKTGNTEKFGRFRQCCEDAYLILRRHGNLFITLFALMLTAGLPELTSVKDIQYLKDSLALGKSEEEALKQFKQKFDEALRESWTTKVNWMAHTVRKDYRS
PI 3-kinase beta, sequence (Q63787 whole entry partner): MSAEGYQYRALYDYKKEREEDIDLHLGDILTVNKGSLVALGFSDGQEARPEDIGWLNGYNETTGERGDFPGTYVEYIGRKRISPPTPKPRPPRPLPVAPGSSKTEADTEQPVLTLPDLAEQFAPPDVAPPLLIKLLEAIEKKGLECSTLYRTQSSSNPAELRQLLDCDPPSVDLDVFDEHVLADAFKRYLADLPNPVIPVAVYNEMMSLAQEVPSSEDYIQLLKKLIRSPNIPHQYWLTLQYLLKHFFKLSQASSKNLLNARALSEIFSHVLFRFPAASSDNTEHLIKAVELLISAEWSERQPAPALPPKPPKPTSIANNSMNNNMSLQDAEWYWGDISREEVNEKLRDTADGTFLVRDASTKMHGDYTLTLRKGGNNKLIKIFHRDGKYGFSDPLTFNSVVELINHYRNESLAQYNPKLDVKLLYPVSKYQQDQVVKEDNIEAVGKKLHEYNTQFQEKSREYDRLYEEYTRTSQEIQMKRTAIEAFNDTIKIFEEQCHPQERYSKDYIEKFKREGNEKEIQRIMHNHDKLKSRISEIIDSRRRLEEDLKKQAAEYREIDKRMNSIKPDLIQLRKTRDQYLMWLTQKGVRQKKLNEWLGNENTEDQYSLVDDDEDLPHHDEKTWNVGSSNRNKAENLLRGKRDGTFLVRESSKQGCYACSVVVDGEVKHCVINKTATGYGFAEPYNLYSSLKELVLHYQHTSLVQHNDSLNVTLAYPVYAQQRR
PI 3-kinase delta, sequence (O00329 whole entry): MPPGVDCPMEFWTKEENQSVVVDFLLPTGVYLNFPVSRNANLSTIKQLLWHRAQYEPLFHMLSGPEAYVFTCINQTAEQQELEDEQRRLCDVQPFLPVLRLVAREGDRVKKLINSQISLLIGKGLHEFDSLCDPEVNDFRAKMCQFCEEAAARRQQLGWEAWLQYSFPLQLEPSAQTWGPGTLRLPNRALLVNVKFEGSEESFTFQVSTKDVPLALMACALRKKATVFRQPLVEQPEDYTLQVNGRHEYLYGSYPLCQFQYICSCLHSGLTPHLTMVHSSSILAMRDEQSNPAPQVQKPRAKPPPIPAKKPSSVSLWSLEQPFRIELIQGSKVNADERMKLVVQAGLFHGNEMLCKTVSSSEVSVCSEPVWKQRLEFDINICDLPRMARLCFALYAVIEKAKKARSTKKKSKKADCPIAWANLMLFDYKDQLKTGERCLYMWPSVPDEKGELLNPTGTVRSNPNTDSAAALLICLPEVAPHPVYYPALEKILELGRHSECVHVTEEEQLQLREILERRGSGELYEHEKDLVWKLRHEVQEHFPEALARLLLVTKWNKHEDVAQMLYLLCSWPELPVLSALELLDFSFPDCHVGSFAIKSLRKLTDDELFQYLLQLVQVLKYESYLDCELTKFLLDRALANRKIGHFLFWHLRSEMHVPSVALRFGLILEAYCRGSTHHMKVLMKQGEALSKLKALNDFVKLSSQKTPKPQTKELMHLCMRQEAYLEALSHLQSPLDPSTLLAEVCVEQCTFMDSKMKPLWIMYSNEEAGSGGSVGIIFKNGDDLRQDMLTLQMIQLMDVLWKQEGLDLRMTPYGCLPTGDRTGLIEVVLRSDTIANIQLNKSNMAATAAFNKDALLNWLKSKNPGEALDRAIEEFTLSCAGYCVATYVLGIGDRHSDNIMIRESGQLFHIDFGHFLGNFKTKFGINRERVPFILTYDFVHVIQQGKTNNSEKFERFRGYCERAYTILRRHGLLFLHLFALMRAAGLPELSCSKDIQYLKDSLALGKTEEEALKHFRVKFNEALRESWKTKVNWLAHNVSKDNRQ
PI 3-kinase delta, sequence (Q63787 whole entry partner): as the sequence (Q63787 whole entry partner) above
PI 3-kinase alpha, sequence (P42336 whole entry): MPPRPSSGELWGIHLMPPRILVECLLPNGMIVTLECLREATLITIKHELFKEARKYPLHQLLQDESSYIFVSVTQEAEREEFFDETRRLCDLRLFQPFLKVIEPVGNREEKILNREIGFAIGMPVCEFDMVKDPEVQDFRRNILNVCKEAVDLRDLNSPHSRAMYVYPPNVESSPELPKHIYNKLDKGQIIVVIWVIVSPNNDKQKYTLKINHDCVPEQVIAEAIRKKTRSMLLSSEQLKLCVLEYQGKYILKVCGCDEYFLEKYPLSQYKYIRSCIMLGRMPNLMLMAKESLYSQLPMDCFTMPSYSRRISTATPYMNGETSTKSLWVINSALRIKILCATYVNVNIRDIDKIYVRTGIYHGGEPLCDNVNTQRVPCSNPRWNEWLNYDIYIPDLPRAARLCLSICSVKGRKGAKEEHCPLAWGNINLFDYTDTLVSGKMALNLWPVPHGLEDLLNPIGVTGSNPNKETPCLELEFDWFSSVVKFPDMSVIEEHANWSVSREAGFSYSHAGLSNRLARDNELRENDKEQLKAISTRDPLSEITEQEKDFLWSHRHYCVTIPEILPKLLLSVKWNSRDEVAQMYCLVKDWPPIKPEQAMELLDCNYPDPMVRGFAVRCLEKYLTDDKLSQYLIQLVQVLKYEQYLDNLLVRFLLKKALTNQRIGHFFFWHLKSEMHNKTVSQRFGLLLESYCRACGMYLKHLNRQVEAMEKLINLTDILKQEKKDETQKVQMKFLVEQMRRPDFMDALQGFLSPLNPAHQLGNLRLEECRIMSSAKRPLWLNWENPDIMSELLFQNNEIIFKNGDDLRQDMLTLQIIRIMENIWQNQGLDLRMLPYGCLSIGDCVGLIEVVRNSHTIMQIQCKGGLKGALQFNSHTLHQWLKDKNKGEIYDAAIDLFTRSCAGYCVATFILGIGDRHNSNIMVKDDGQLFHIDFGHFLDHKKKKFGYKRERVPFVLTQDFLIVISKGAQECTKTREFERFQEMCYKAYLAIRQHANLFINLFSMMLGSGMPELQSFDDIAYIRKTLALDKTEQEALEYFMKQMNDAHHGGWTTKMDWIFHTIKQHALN
PI 3-kinase alpha, sequence (Q63787 whole entry partner): as the sequence (Q63787 whole entry partner) above

SMILES	IC50 [1] [µM]	IC50 [2] [µM]	IC50 [3] [µM]	IC50 [4] [µM]
Cc1ccc(S(=O)(=O)N[C@H]2CC[C@H](O)CC2)cc1-c1cncc(-c2csc(CN3CCOCC3)c2)n1 [Example 12, Trans N-(4-Hydroxy-cyclohexyl)-4-methyl-3-[6-(5-morpholin-4-ylmethyl-thiophen-3-yl)-pyrazin-2-yl]-benzenesulfonamide]	1.11	0.83	0.306	1.14
Cc1ccc(S(=O)(=O)NC[C@H]2C[C@@H](O)C2)cc1-c1cncc(-c2cn(C)nc2C)n1 [Example 7, Cis 3-[6-(1,3-Dimethyl-1H-pyrazol-4-yl)-pyrazin-2-yl]-N-(3-hydroxy-cyclobutylmethyl)-4-methyl-benzenesulfonamide]	–	0.212	–	–
Cc1cc(-c2cncc(-c3cc(S(=O)(=O)NC[C@H]4C[C@@H](O)C4)ccc3C)n2)n(C)n1 [Example 13, Cis 3-[6-(2,5-Dimethyl-2H-pyrazol-3-yl)-pyrazin-2-yl]-N-(3-hydroxy-cyclobutylmethyl)-4-methyl-benzenesulfonamide]	–	0.847	–	–
Cc1ccc(S(=O)(=O)NC2CC3(CC(O)C3)C2)cc1-c1cncc(-c2cn(C)nc2C)n1 (stereo not shown) [Example 6, 3-[6-(1,3-Dimethyl-1H-pyrazol-4-yl)-pyrazin-2-yl]-N-(6-hydroxy-spiro[3.3]hept-2-yl)-4-methyl-benzenesulfonamide]	1.05	0.374	0.515	0.709
